Entries after “also recorded” stand apart in the source; their conditions may differ. Read-outs that look alike come from different tables or passages of the source.
B1: gp350: highly purified EBV structural glycoprotein gp350, subunit preparation (recombinant and affinity purified) (protein, UniProt P03200 1-907, looked up)
Envelope glycoprotein GP350: MEAALLVCQYTIQSLIHLTGEDPGFFNVEIPEFPFYPTCNVCTADVNVTINFDVGGKKHQLDLDFGQLTPHTKAVYQPRGAFGGSENATNLFLLELLGAGELALTMRSKKLPINVTTGEEQQVSLESVDVYFQDVFGTMWCHHAEMQNPVYLIPETVPYIKWDNCNSTNITAVVRAQGLDVTLPLSLPTSAQDSNFSVKTEMLGNEIDIECIMEDGEISQVLPGDNKFNITCSGYESHVPSGGILTSTSPVATPIPGTGYAYSLRLTPRPVSRFLGNNSILYVFYSGNGPKASGGDYCIQSNIVFSDEIPASQDMPTNTTDITYVGDNATYSVPMVTSEDANSPNVTVTAFWAWPNNTETDFKCKWTLTSGTPSGCENISGAFASNRTFDITVSGLGTAPKTLIITRTATNATTTTHKVIFSKAPESTTTSPTLNTTGFADPNTTTGLPSSTHVPTNLTAPASTGPTVSTADVTSPTPAGTTSGASPVTPSPSPWDNGTESKAPDMTSSTSPVTTPTPNATSPTPAVTTPTPNATSPTPAVTTPTPNATSPTLGKTSPTSAVTTPTPNATSPTLGKTSPTSAVTTPTPNATSPTLGKTSPTSAVTTPTPNATGPTVGETSPQANATNHTLGGTSPTPVVTSQPKNATSAVTTGQHNITSSSTSSMSLRPSSNPETLSPSTSDNSTSHMPLLTSAHPTGGENITQVTPASISTHHVSTSSPAPRPGTTSQASGPGNSSTSTKPGEVNVTKGTPPQNATSPQAPSGQKTAVPTVTSTGGKANSTTGGKHTTGHGARTSTEPTTDYGGDSTTPRPRYNATTYLPPSTSSKLRPRWTFTSPPVTTAQATVPVPPTSQPRFSNLSMLVLQWASLAVLTLLLLLVMADCAFRRNLSTSHTYTTPPYDDAETYV

Experiments:
[1] = tested on: peptide-sensitized HLA-matched PHA blasts; format: cell-based, human
[2] = tested on: peptide-sensitized autologous PHA blasts
[3] = tested on: gp350- and gp85-specific CTL response; conditions: mouse, in vivo, sc
HLA A2 on T2 cells = biological target: T1, HLA A2 on T2 cells (Homo sapiens, UniProt P04439, D140Y/D185E/D98H/E176V/E277Q/G131W/G231S/I119V/I121R/I166T/I218V/L300P/L318F/N151K/N90K/P208A/P217A/Q86G/Q94H/R138H/R169H/T345S); assay: MHC stabilisation assay on T2 cells (HLA A2 expression by FACS); format: cell-based; conditions: peptide 200 μg/ml, 26° C. 14-16h then 37° C. 2-3h
T1 construct: using HLA A2-positive T2 cells; endogenous in cells; host or cells: T2 (174xCEM.T2), TAP-negative B x T hybrid cell line
Procedure: FIG. 1:MHC stablization analysis on T2 cells using potential HLA A2 binding peptides within LMP1. T2 cells were initially incubated with 200 μl of each of the peptides (200 μg/ml) for 14-16h at 26° C. followed by incubation at 37° C. for 2-3h. HLA A2 expression on these cells was analysed by FACS using the BB7.2 antibody. The dotted line indicates the background mean fluorescence intensity for HIA A2 on T2 cells without any peptide. The LMP1 peptides showing significant stablization of HLA A2 molecules on T2 cells are indicated by arrows.
FIG. 6:Effect of variant LMP1 peptides on the HLA A2 binding (panel A) and CTL recognition (panel B). For HLA A2 binding analysis on T2 cells were initially incubated with 200 μl of each of the peptides (200 μg/ml) for 14-16h at 26° C. followed by incubation at 37° C. for 2-3h. HLA A2 expression on these cells was analysed by FACS using BB7.2 antibody (panel A). The dotted line indicates the background mean fluorescence intensity for HLA A2 on T2 cells without any peptide. […] Results are expressed as percent specific lysis. […]
FIG. 8:MHC stabilization analysis on T2 cells using potential HLA A2 binding peptides within gp85 (panel A) and gp350 (panel B). […] HLA A2 expression on these cells was analysed by FACS using the BB7.2 antibody. The dotted line indicates the background mean fluorescence intensity for HLA A2 on T2 cells without any peptide. […]

CTL clone SB7 = assay: LMP1-specific CTL clone SB7, peptide recognition / 51Cr-release assay; format: cell-based, human; conditions: donor; for recognition of peptide by CTL clone SB7: effector:target 4:1
[4] = tested on: peptide-sensitized autologous PHA blasts; assay: Polyclonal CTLs stimulated with LMP1 peptides, 51Cr-release assay; format: cell-based, human; conditions: HLA A2-positive donor; effector:target 20:1; targets 1 μg/ml peptide
EBV-positive lymphomas = conditions: cited from earlier work

| Molecule | ex vivo CTL recognition of peptide-sensitized targets [1] | reactivity of polyclonal CTL effectors against peptide-sensitized PHA blasts [2] | CTL response in splenocytes [3] | lysis of targets by CTLs activated from splenocytes of immunized mice [3] | other results |
| --- | --- | --- | --- | --- | --- |
| LMIIPLINV | recognised | recognized | – | – | – |
| SLVIVTTFV | strong reactivity | strong reactivity | induced strong CTL response | variable in vitro CTL lysis | – |
| TLFIGSHVV | – | recognized | induced strong CTL response | consistently showed strong lysis | ex vivo CTL response during acute infection [1]: not detectable |
| VLQWASLAV | strong reactivity; also recorded: recognised | strong reactivity | induced strong CTL response | variable in vitro CTL lysis | – |
| YFLEILWGL | – | – | – | – | expression of HLA A2 on T2 cells (HLA A2 on T2 cells): significantly increased; recognition of peptide by CTL clone SB7 (CTL clone SB7): no CTL activity |
| YLLEILWRL (Epstein Barr Virus) | – | – | – | – | expression of HLA A2 on T2 cells (HLA A2 on T2 cells): significantly increased; recognition of peptide by CTL clone SB7 (CTL clone SB7): efficiently recognized |
| YLQQNWWTL (Epstein Barr Virus) [LMP1 residues 159-167] | – | – | – | – | activation of polyclonal CTLs (specific lysis) [4]: significant activation of polyclonal CTLs; also recorded: weaker response; isolation of peptide-specific CTL clones (CTL clone SB7): No CTL clones specific; ex vivo CTL recognition of peptide-sensitized targets ([1]; all three IM patients, peptide 1 μg/ml): clear recognition |
| B1 | – | – | – | – | tumor formation / tumor outgrowth (EBV-positive lymphomas; cotton-top tamarins): inhibited tumor formation; serum neutralizing antibodies (EBV-positive lymphomas; subcutaneously with adjuvants (muramyl dipeptide or ISCOMs)): induced high levels of serum neutralizing antibodies |

Reference: US6723695B1, “CTL epitopes from EBV” (priority 1997, dated 2004)
